The results in this text go back to ChEMBL document CHEMBL1201862, “PubChem BioAssay data set” (2004).

Some test systems named below: IGROV-1; EKVX; T47D; SK-OV-3; DU-145; OVCAR-3; KM12; MDA-MB-231; TK-10; U-251; PC-3; SN12C; SK-MEL-28; MDA-N; K562; MDA-MB-435; NCI-H460; COLO 205; HOP-18; DMS-273.
What all share (assay): inhibition of tumour cell growth, NCI panel, 48 h

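Protocol summary: plate cells (96-well), add compound at 5 concentrations, incubate 48 h, interpolate endpoints linearly. GI50 = concentration required for 50% inhibition of growth.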 The source made the active and inactive calls. No stated cut-off is given here; in the data, active = GI50 up to about 1.1 µM and inactive = higher. A value given as a limit tells only on which side of the number the result lay.

Regarding `C=CCNC(=O)CN(CC(=O)OC)C1CCCCC1N(CC(=O)OC)CC(=O)OC` (stereo not drawn), the GI50 in the assay with IGROV-1, in the assay on EKVX, in the assay with T47D, with SK-OV-3, in the assay on DU-145 and in the assay with OVCAR-3 was > 100 µM (inactive) in each case. The GI50 with KM12, in the assay on MDA-MB-231, in the assay with TK-10, in the assay with U-251, in the assay with PC-3 and in the assay on SN12C was > 100 µM (inactive) in each case. Besides, the GI50 in the assay with SK-MEL-28, with MDA-N, with K562, in the assay with MDA-MB-435 and in the assay on NCI-H460 was > 100 µM (inactive) throughout.
In the case of `Cc1cn(Cc2cn(CC3OC(n4cc(C)c(=O)[nH]c4=O)CC3O)nn2)c(=O)[nH]c1=O` (stereo not drawn), the GI50 in the assay with COLO 205, in the assay with EKVX, in the assay with T47D, in the assay with SK-OV-3, in the assay with DU-145 and in the assay on OVCAR-3 was > 100 µM (inactive) throughout. Further, the GI50 in the assay with KM12, in the assay on MDA-MB-231, with TK-10, in the assay with U-251, in the assay with PC-3 and in the assay on SN12C was > 100 µM (inactive) in each case. In addition, the GI50 with SK-MEL-28, in the assay on MDA-N and in the assay on MDA-MB-435 was > 100 µM (inactive) throughout.
In the case of `CNC(=O)N(C)COC`, the GI50 in the assay on IGROV-1 is > 100 µM (inactive); with COLO 205, > 100 µM (inactive); with EKVX it was > 100 µM (inactive); in the assay on SK-OV-3, > 100 µM (inactive); with HOP-18, > 100 µM (inactive); in the assay with OVCAR-3, 32.3 µM (inactive). Besides, the GI50 in the assay on KM12, with U-251, with SN12C, in the assay on SK-MEL-28 and in the assay with NCI-H460 was > 100 µM (inactive) in each case.
Take `O=c1c2cccnc2oc2c(Cl)cc(-c3nnn[nH]3)cc12`: the GI50 in the assay on IGROV-1, in the assay on COLO 205, in the assay with EKVX, with T47D, in the assay on SK-OV-3 and in the assay with DU-145 was > 100 µM (inactive) throughout. Further, the GI50 in the assay on OVCAR-3, in the assay with KM12, in the assay with MDA-MB-231, with TK-10, with PC-3 and with SN12C was > 100 µM (inactive) in each case. For the same compound, the GI50 in the assay on SK-MEL-28, in the assay on MDA-N, in the assay on K562 and in the assay on MDA-MB-435 was > 100 µM (inactive) throughout.
For the compound `CC1(C)CC[C@]2(C(=O)O)CC[C@]3(C)C(=CC[C@@H]4[C@@]5(C)CC[C@@H]6OC(C)(C)OC[C@@]6(C)[C@@H]5CC[C@]43C)[C@H]2C1`, the GI50 is 11.4 µM (inactive) with IGROV-1; 11.3 µM (inactive) in the assay with COLO 205; 5.08 µM (inactive) in the assay with EKVX; 13.9 µM (inactive) in the assay with T47D; 17.1 µM (inactive) with SK-OV-3; 9.86 µM (inactive) with DU-145. Also, the GI50 in the assay on OVCAR-3 is 4.54 µM (inactive); in the assay with MDA-MB-231, 3.04 µM (inactive); in the assay with TK-10 it was 11.6 µM (inactive); in the assay on U-251, 5.89 µM (inactive); in the assay with PC-3, 5.4 µM (inactive); in the assay with SN12C, 3.13 µM (inactive). Besides, the GI50 was 14.4 µM (inactive) in the assay on SK-MEL-28; 13.3 µM (inactive) in the assay with MDA-N; 14.9 µM (inactive) in the assay on K562; 8.55 µM (inactive) with MDA-MB-435; 5.46 µM (inactive) in the assay on NCI-H460.
`CC(C)(C)OC(=O)NC(Cc1c[nH]cn1)C(=O)N1CCCC1C(N)=O` (stereo not drawn): the GI50 in the assay with IGROV-1, with COLO 205, in the assay on EKVX, in the assay on T47D, with SK-OV-3 and with DU-145 was > 100 µM (inactive) throughout. Further, the GI50 in the assay on OVCAR-3, in the assay with KM12, with MDA-MB-231, in the assay on TK-10, with U-251 and in the assay with PC-3 was > 100 µM (inactive) each time. Further, the GI50 in the assay on SN12C, with SK-MEL-28, in the assay on MDA-N, with K562, with MDA-MB-435 and in the assay on NCI-H460 was > 100 µM (inactive) each time.
As to `CC(C)CNC1=NCC(C)S1` (stereo not drawn), the GI50 in the assay with IGROV-1, in the assay on COLO 205, in the assay on EKVX, in the assay on T47D, in the assay on SK-OV-3 and in the assay on DU-145 was > 100 µM (inactive) in each case. The GI50 in the assay on OVCAR-3, in the assay on KM12, in the assay with MDA-MB-231, with TK-10, with U-251 and with PC-3 was > 100 µM (inactive) each time. Besides, the GI50 with SK-MEL-28, with MDA-N, in the assay on K562, in the assay on MDA-MB-435 and with NCI-H460 was > 100 µM (inactive) throughout.
Turning to `CC1OC(CO)(n2cnc3c(N)ncnc32)C(O)C1O` (stereo not drawn), the GI50 with IGROV-1, with COLO 205, with EKVX, in the assay on DMS-273, in the assay with SK-OV-3 and in the assay on HOP-18 was > 100 µM (inactive) each time. Further, the GI50 in the assay on OVCAR-3, in the assay on KM12, in the assay with U-251, in the assay on SN12C, in the assay on SK-MEL-28 and with K562 was > 100 µM (inactive) in each case. The GI50 with NCI-H460 is > 100 µM (inactive).
Take `Cn1c(=O)c2nc(N3CCCCC3)cnc2n(C)c1=O`: the GI50 in the assay on IGROV-1, with COLO 205, with EKVX, in the assay with SK-OV-3, in the assay on OVCAR-3 and in the assay with KM12 was > 100 µM (inactive) throughout. Moreover, the GI50 with TK-10, in the assay on U-251, in the assay on SN12C, in the assay on SK-MEL-28, in the assay on K562 and in the assay with NCI-H460 was > 100 µM (inactive) each time.
Turning to `CCOc1ccc2nc(NC(=O)C(=O)C(C(=O)c3ccccc3F)C3OC(=O)c4ccccc43)sc2c1` (stereo not drawn), the GI50 is 25.6 µM (inactive) in the assay with IGROV-1; 15.6 µM (inactive) in the assay with COLO 205; 19.1 µM (inactive) in the assay with EKVX; 19.1 µM (inactive) in the assay with DMS-273; 24.1 µM (inactive) in the assay on SK-OV-3; 0.723 µM (active) with KM12. Further, the GI50 with TK-10 is 23.3 µM (inactive); with U-251, 11.1 µM (inactive); in the assay on SN12C, 16.4 µM (inactive); in the assay on SK-MEL-28, 24.4 µM (inactive); in the assay on K562, 21.8 µM (inactive); in the assay with NCI-H460 it was 17.5 µM (inactive).
Take `CC(=O)O[C@@H]1CN(S(=O)(=O)c2ccc(C)cc2)C[C@@H]1C1CCCCC1`: the GI50 was 17.3 µM (inactive) with IGROV-1; 18.5 µM (inactive) in the assay with COLO 205; 19.9 µM (inactive) in the assay with EKVX; 31.8 µM (inactive) with T47D; 62.2 µM (inactive) with SK-OV-3; 30.8 µM (inactive) in the assay on DU-145. The GI50 in the assay with OVCAR-3 was 15 µM (inactive); in the assay on KM12, 16.1 µM (inactive); with TK-10, 14.2 µM (inactive); in the assay with U-251, 17.7 µM (inactive); in the assay on PC-3, 18.3 µM (inactive); in the assay on SK-MEL-28, 14.5 µM (inactive). The GI50 was 17.1 µM (inactive) in the assay on MDA-N, 45.7 µM (inactive) in the assay on K562, 18.7 µM (inactive) in the assay with MDA-MB-435 and 34.5 µM (inactive) with NCI-H460.
For the compound `C=CCn1c(=O)c(C(=O)Nc2nc(C34CC5CC(CC(C5)C3)C4)cs2)c(O)c2ccccc21`, the GI50 in the assay with IGROV-1 was 33.1 µM (inactive); with COLO 205 it was 18.1 µM (inactive); in the assay with EKVX, 30.5 µM (inactive); with DU-145, 47.8 µM (inactive); with OVCAR-3, 49.3 µM (inactive); with KM12 it was 30.1 µM (inactive). The GI50 was 22 µM (inactive) with MDA-MB-231; 82.8 µM (inactive) in the assay on TK-10; 50.2 µM (inactive) in the assay with U-251; 43.4 µM (inactive) in the assay with PC-3; 45.5 µM (inactive) in the assay on SN12C; 63 µM (inactive) in the assay on SK-MEL-28. The GI50 was 48.6 µM (inactive) with MDA-N, 15.1 µM (inactive) with K562, 63.4 µM (inactive) in the assay on MDA-MB-435 and 32.9 µM (inactive) with NCI-H460.
`CC(=O)NC1C(O)C(O)C(CO)OC1n1nc(SCc2ccccc2)c(=O)[nH]c1=O` (stereo not drawn): the GI50 with IGROV-1, in the assay on COLO 205, in the assay on EKVX, in the assay on T47D, in the assay with SK-OV-3 and in the assay on DU-145 was > 100 µM (inactive) each time. In addition, the GI50 in the assay with OVCAR-3, with KM12, with MDA-MB-231, with TK-10, with U-251 and with PC-3 was > 100 µM (inactive) throughout. The GI50 in the assay on SN12C, in the assay on SK-MEL-28, with MDA-N, with K562, with MDA-MB-435 and in the assay on NCI-H460 was > 100 µM (inactive) each time.
